Results on nine compounds are retold here after paper PMC11939259, “Antiparasitic and Antifungal Activities of Cetyl-Maritima, a New N-Cetyl-Modified Maritima Derivative” (Antibiotics, 2025).

For assay [1], the system named is M. mycetomatis fungal strain MM55. Description: M. mycetomatis MM55 in vitro susceptibility, MTS metabolic activity. Format: cell-based, Madurella mycetomatis. The settings on record: for Metabolic activity upon treatment at 25 μM / Metabolic activity upon treatment at 100 μM: ± SD.
Experimental: The M. mycetomatis MM55 isolate obtained from a patient and identified and maintained in the Erasmus Medical Centre, Rotterdam, The Netherlands, was applied for the investigation of the in vitro susceptibility of the test compounds as reported previously [94]. In short, the fungal isolate was cultured on Sabouraud agar for 2 weeks at 37 °C, after which the mycelium was transferred in colorless RPMI 1640 medium supplemented with L-glutamine (0.3 g/L; Capricorn-Scientific, Ebsdorfergrund, Germany), morpholinepropanesulfonic acid (MOPS, 20 mM, Sigma, St. Louis, MO, USA), and chloramphenicol (100 mg/L, Oxoid, Basingstroke, UK). The mycelium was sonicated for 10 s at 10 μm with a probe sonicator (Soniprep, Beun de Ronde, Abcoude, The Netherlands) to obtain a hyphal suspension, after which the hyphal suspension was cultured for another week at 37 °C. The suspension was then collected by centrifugation (5 min, 3400 rpm) and washed with PBS followed by the addition of fresh RPMI 1640 medium, after which the mycelia was again sonicated for 10 s at 10 μm with a probe sonicator. The hyphal suspension was diluted to a transmission of 70% at 660 nm (Novaspec II; Pharmacia Biotech, Uppsala, Sweden). Then, 100 μL of the suspension was added to each well of a 96-wells plate (Costar 3799, Fisher Scientific, Breda, The Netherlands) that contained 1 μL of each compound sample. Compounds were initially evaluated at concentrations of 100 μM and 25 μM.
For the final metabolic activity evaluation, a viability dye named MTS, 3-(4,5-dimethylthiazol-2-yl)-5-(3-carboxymethoxyphenyl)-2-(4-sulfophenyl)-2H-tetrazolium salt, was applied as described in a previous study [64]. The following formula was used: Percentage metabolic activity=Absorbance test490nm−Absorbance NC490nm/Absorbance GC490nm−Absorbance NC490nm∗100
The growth control (GC) refers to the fungal isolate only and indicates 100% metabolic activity.
The test system of the next assay is Vero monkey kidney cells. Description: Vero cell cytotoxicity (MTT). Format: cell-based. The settings on record: Primates, 72 h, ± S.D. The procedure:
MTT assays were performed to assess the cytotoxicity of the test compounds. Vero cells and isolated macrophages were seeded in 96-well plates at a density of 5 × 10^3 cells per well in 200 μL of RPMI 1640 medium with 10% FBS and incubated at 37 °C with 5% CO2 for 24 h. After incubation, cells were washed with PBS and treated with test compounds at varying concentrations (90, 30, 10, 3.3, 1.1, 0.37, and 0.12 μg/mL) in 10% FBS medium for 72 h. Negative control wells contained cells treated with medium in 2% FBS without test compounds (see also raw data in Table S5). After treatment, the supernatant was removed, and 50 μL of RPMI 1640 medium containing 14 μL of MTT solution (5 mg/mL) was added. The cells were incubated for an additional 4 h. Following incubation, the supernatant was discarded, and 200 μL of DMSO was added to dissolve the formazan crystals. The absorbance was measured at 540 nm using a FLUOstar OPTIMA spectrophotometer (BMG LABTECH, Ortenberg, Germany). […] IC50 values were determined from three independent experiments.

In a further assay the test system is peritoneal macrophages. Description: Macrophage cytotoxicity (MTT). Format: cell-based, BALB/c mice. As to conditions: Mus musculus, 72 h, read-out: IC50 Macrophages. The procedure: For amastigote activity assays, peritoneal macrophages were collected from BALB/c mice (7 weeks old) by aspiration. Cells (5 × 10^4 cells/well) were seeded into 96-well plates (see also Figure S7) with phenol red-free RPMI 1640 medium containing 10% FBS and incubated at 37 °C with 5% CO2 for 4 h to allow adhesion. After discarding the medium and washing with PBS, 200 μL of L. major promastigotes in RPMI 1640 medium (10 promastigotes per macrophage) were added. Plates were incubated at 37 °C with 5% CO2 for 24 h to promote macrophage infection and amastigote differentiation. Unattached promastigotes were removed by washing with PBS (three times), and fresh phenol red-free RPMI 1640 medium containing test compounds (90, 30, 10, 3.3, 1.1, 0.37, and 0.12 μg/mL) was added. Cultures were incubated at 37 °C in 5% CO2 for 72 h. […] After incubation, cells were fixed and Giemsa-stained, and the percentage of infected macrophages was determined microscopically. IC50 values were calculated from three independent experiments. […]
MTT assays were performed to assess the cytotoxicity of the test compounds. […] The absorbance was measured at 540 nm using a FLUOstar OPTIMA spectrophotometer (BMG LABTECH, Ortenberg, Germany). […] IC50 values were determined from three independent experiments.

In assay [2] the test system is T. gondii RH strain tachyzoites. Description: T. gondii growth inhibition in infected Vero cells (infection index). It is filed as cell-based, Toxoplasma gondii. The procedure:
Cells of the Vero cell line (ATCC® CCL81™, Manassas, VA, USA) were used to cultivate T. gondii RH strain tachyzoites. The effects of test compounds on T. gondii growth were investigated according to previously published methods. Vero cells were maintained in complete RPMI 1640 medium supplemented with 10% heat-inactivated FBS, under a humidified atmosphere containing 5% CO2 at 37 °C. The cells were seeded in 96-well plates at a density of 5 × 10^3 cells/well (see also Figure S7) in 200 μL of RPMI 1640 medium and incubated at 37 °C with 5% CO2 for 24 h. Following incubation, the medium was discarded, and cells were washed with PBS. Subsequently, RPMI 1640 medium containing 2% FBS and T. gondii tachyzoites was added at a ratio of 5 parasite cells to 1 Vero cell. After 5 h incubation at 37 °C and 5% CO2, cells were washed with PBS and processed as outlined below.
Control: RPMI 1640 medium with 0.8% DMSO.
Experimental: RPMI 1640 medium containing test compounds (dissolved in DMSO) at concentrations of 90, 30, 10, 3.3, 1.1, 0.37, and 0.12 μg/mL. Atovaquone (ATO) was used as positive control.
Cells were incubated at 37 °C and 5% CO2 for 72 h, washed with PBS, fixed in 10% formalin, and stained with 1% toluidine blue. The infection index, defined as the number of infected cells out of 200 examined cells, was determined using an inverted photomicroscope.
The percentage of inhibition was calculated using the following equation:Inhibition (%) = [(I Control − I Experimental)/I Control] × 100 where “I Control” is the infection index of untreated cells, and “I Experimental” is the infection index of cells treated with test compounds.

The next assay relates to L. major promastigotes. Description: L. major promastigote viability (MTT). Format: cell-based. The settings on record: Leishmania major, 72 h, read-out: IC50 Promastigotes.
Assay [3] relates to L. major intramacrophageal amastigotes. Description: L. major intramacrophageal amastigote assay (Giemsa, infected macrophages). It is filed as cell-based, Leishmania major. The settings on record: for IC50: Leishmania major, Macrophage, 72 h, read-out: IC50 Amastigotes. The procedure:
Promastigotes of L. major were isolated from a patient in February 2016 and cultured at 26 °C in Schneider’s Drosophila medium (Invitrogen, Carlsbad, CA, USA) supplemented with 10% heat-inactivated fetal bovine serum (FBS, Invitrogen, USA) and antibiotics. Cultures were maintained in tissue culture flasks with weekly transfers. The promastigotes were cryopreserved in liquid N2 at a concentration of 3 × 10^6 parasites/mL. Virulent L. major parasites were maintained by serial passage in BALB/c mice through hind footpad injections of 1 × 10^6 stationary-phase promastigotes, and amastigotes were isolated after 7 weeks. Isolated amastigotes were converted to promastigotes by culturing at 26 °C in Schneider’s medium with antibiotics and 10% FBS. Amastigote-derived promastigotes, with fewer than five in vitro passages, were used for infection experiments.
For amastigote activity assays, peritoneal macrophages were collected from BALB/c mice (7 weeks old) by aspiration. Cells (5 × 10^4 cells/well) were seeded into 96-well plates (see also Figure S7) with phenol red-free RPMI 1640 medium containing 10% FBS and incubated at 37 °C with 5% CO2 for 4 h to allow adhesion. After discarding the medium and washing with PBS, 200 μL of L. major promastigotes in RPMI 1640 medium (10 promastigotes per macrophage) were added. Plates were incubated at 37 °C with 5% CO2 for 24 h to promote macrophage infection and amastigote differentiation. Unattached promastigotes were removed by washing with PBS (three times), and fresh phenol red-free RPMI 1640 medium containing test compounds (90, 30, 10, 3.3, 1.1, 0.37, and 0.12 μg/mL) was added. Cultures were incubated at 37 °C in 5% CO2 for 72 h. […] After incubation, cells were fixed and Giemsa-stained, and the percentage of infected macrophages was determined microscopically. IC50 values were calculated from three independent experiments. The isolation of parasites and macrophages was performed strictly following the rules and guidelines of the responsible committee of research ethics, Deanship of Scientific Research, Qassim University, Kingdom of Saudi Arabia (permission number 20-03-20).

In assay [4] the test system is M. mycetomatis fungal strain MM55. Set-up: method as in PMID 37067830. As to conditions: positive control, cited from earlier work.
In the next assay the test system is eumycetoma. Set-up: method as in PMID 38690871, PMID 38935904, PMID 39098321. As to conditions: eumycetoma patients, conditions of a clinical trial, combined with surgery; cited from earlier work.
The mark [5] stands for this setting: Madurella mycetomatis, read-out: IC50.

As a reminder, the IC50 is the concentration needed to halve the response being measured.

“And” between values parts separate entries of the source, which are not always exact repeats. Identical values can stand only once. Like-named read-outs stand apart in the source and are kept apart here.

In the case of `CCCCCCCCCCCCCCCC[n+]1ccccc1C` [C2PicBr], in assay [1], the “Metabolic activity upon treatment at 25 μM” value amounted to 8.7 ± 0.8% and the “Metabolic activity upon treatment at 100 μM” value was 4.5 ± 0.8%. Moreover, in assay [1] (setting [5]), the IC50 was determined as 16.1 µM.

As to `CCCCCCCCCCCCCCCC[n+]1ccc(C)cc1` [C4PicBr], in assay [1], the “Metabolic activity upon treatment at 25 μM” value is listed as 18.4 ± 17.7% and the “Metabolic activity upon treatment at 100 μM” value amounted to 5.0 ± 0.8%. Moreover, the half-inhibitory concentration (IC50) in assay [1] (setting [5]) was found to be 16.1 µM.

Take `CCCCCCCCCCCCCCCC[n+]1ccc(CCC=C(C)CCC=C(C)C)cc1.[Br-]` [Cetyl-Maritima, 1-Hexadecyl-4-(4,8-dimethyl-3,7-nonadienyl)-pyridinium Bromide]: the IC50 is 11.4 ± 1.3 µM in the assay with Vero monkey kidney cells; 8.2 µM in assay [1]; approximately 8 µM in assay [1] (Madurella mycetomatis); 4.3 ± 0.5 µM with peritoneal macrophages; 8.6 ± 1.2 µM in assay [2] (72 h; ± S.D); approximately 8 µM in assay [2] (Toxoplasma gondii, Vero, 72 h; ± S.D). Also, the half-inhibitory concentration (IC50) came to 1.5 ± 0.2 µM in the assay with L. major promastigotes and 0.6 ± 0.2 µM in assay [3]. Further, the “Metabolic activity upon treatment at 25 μM” value in assay [1] is reported as 12.2 ± 6.9%. Moreover, in assay [1], the “Metabolic activity upon treatment at 100 μM” value is 13.1 ± 2.0%. The “SI selectivity index (Vero/T. gondii)” value in assay [2] stood at 1.3. Also, the “SI selectivity index (macrophages/L. major amastigotes)” value in assay [3] is on record as 7.2. Further, the “SI selectivity index, Vero kidney cells vs L. major amastigotes” value in assay [3] was found to be 19.

`CCCCCCCCCCCCCCCC[n+]1ccc(/C=C/c2ccc(N(C)C)cc2)cc1` [DAMS-16]: in assay [1], the “Metabolic activity upon treatment at 25 μM” value came out at 56.9 ± 69.3% and the “Metabolic activity upon treatment at 100 μM” value was 25.4 ± 4.3%. In addition, the concentration for half-maximal inhibition (IC50) in assay [1] (setting [5]) was 16 µM.

On to `CCC(C)n1ncn(-c2ccc(N3CCN(c4ccc(OCC5COC(Cn6cncn6)(c6ccc(Cl)cc6Cl)O5)cc4)CC3)cc2)c1=O` (stereo not drawn) [Itraconazole, itraconazole], for which the “Metabolic activity upon treatment at 25 μM” value in assay [4] (25 μM, ± SD) is −1.04 ± 2.37%. The “Metabolic activity upon treatment at 100 μM” value in assay [4] (100 μM, ± SD) is 2.34 ± 4.49%. For the same compound, the IC50 in assay [4] was 0.09 µM. Besides, in the assay with eumycetoma, the cure rate is given as more than 70%.

Consider `CC(C)=CCCC(C)=CCCc1ccncc1` [Maritima, 4-(4,8-dimethyl-3,7-nonadienyl)-pyridine], for which the 50% inhibitory concentration (IC50) was more than 314 µM with Vero monkey kidney cells; more than 314 µM in the assay with peritoneal macrophages (± S.D); more than 314 µM in assay [2] (Toxoplasma gondii, Vero; 72 h; ± S.D); more than 314 µM in the assay with L. major promastigotes (± S.D); more than 314 µM in assay [3] (intramacrophageal, ± S.D). In assay [1], the “Metabolic activity upon treatment at 25 μM” value is 54% and 54.3 ± 7.5%. Further, the “Metabolic activity upon treatment at 100 μM” value in assay [1] is 13.8 ± 33.8%.

For `CCCCCCCCCCCCCCCC[n+]1ccc(/C=C/c2cc(OC)c(OC)c(OC)c2)cc1` [TMP-16], in assay [1], the “Metabolic activity upon treatment at 25 μM” value is reported as 13.3 ± 1.5% and the “Metabolic activity upon treatment at 100 μM” value is 19.1 ± 1.1%. The half-inhibitory concentration (IC50) in assay [1] (setting [5]) stood at 18.2 µM.

For the compound `C[C@@H](c1nc(-c2ccc(C#N)cc2)cs1)[C@@](Cn1cncn1)(OCOP(=O)(O)O)c1ccc(F)cc1F` [fosravuconazole], the cure rate in the assay on eumycetoma was more than 70%.

With “Dichlorido(η^6-p-cymene)[4-(4,8-dimethyl-3,7-nonadienyl)-pyridine]ruthenium(II) [Ru-Maritima]”, in assay [1], the “Metabolic activity upon treatment at 25 μM” value was 155% and 155.7 ± 22.2%; the “Metabolic activity upon treatment at 100 μM” value is −6.6 ± 12.2%.
